Bridge positions count the residues as written; N and C are the ends. Square brackets hold non-standard residues; d marks the D form. Peptide text beside a SMILES is read from it. 1Nal = N[C@@H](Cc1cccc2ccccc12)C(=O)O

In one assay the target is T1, human Kv1.3 (CHO) (Homo sapiens, UniProt P22001).
T1 construct: expressed in transfected cells; host or cells: CHO
The assay can be described thus: cell-based.

A further assay has as its target T2, human Kv1.1 (HEK293) (Homo sapiens, UniProt Q09470).
T2 construct: expressed in transfected cells; host or cells: HEK293
The assay can be described thus: cell-based.

T2 sequence (Q09470 whole entry): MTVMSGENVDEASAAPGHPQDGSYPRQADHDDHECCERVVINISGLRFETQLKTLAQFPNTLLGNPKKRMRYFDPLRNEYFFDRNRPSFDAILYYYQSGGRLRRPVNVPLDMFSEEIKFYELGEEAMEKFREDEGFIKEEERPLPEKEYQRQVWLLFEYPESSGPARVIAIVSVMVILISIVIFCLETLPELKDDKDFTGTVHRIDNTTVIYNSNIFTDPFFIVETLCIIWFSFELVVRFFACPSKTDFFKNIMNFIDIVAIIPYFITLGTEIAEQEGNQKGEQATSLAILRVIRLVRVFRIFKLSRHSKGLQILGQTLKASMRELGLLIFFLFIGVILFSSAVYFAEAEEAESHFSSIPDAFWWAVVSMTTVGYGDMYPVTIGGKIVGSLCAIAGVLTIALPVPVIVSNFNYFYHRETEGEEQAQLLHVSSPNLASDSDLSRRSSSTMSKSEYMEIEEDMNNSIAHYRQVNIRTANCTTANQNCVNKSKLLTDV
T1 sequence (P22001 whole entry): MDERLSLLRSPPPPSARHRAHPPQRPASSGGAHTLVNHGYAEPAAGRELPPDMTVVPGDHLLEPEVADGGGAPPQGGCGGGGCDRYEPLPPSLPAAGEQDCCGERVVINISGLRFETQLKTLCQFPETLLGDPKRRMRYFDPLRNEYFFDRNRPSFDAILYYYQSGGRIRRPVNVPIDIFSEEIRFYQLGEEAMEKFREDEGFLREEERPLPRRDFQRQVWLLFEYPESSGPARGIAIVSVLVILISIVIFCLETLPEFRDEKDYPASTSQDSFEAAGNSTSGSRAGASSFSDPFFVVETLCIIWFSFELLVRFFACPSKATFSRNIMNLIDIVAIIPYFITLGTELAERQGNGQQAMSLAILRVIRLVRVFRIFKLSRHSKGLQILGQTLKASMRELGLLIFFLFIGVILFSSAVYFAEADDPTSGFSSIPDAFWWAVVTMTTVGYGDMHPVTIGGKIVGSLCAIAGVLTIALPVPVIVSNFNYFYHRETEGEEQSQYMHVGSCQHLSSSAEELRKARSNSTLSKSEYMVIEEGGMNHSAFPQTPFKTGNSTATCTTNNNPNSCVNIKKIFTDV

`CC[C@H](C)[C@@H]1NC(=O)[C@H](CCCCN)NC(=O)[C@@H](NC(=O)[C@H](CCCCN)NC(=O)[C@@H](NC(=O)[C@H](CC(N)=O)NC(=O)[C@@H](NC(=O)[C@@H](NC(=O)[C@@H](NC(=O)CN)C(C)C)[C@@H](C)CC)[C@@H](C)CC)C(C)C)CSSC[C@@H]2NC(=O)[C@H](CCC(=O)O)NC(=O)CNC(=O)[C@H](Cc3ccccc3)NC(=O)[C@H](CCCNC(=N)N)NC(=O)[C@H](CCSC)NC(=O)CNC(=O)[C@H](C)NC(=O)[C@H](CCCCN)NC(=O)[C@H](CCCCN)NC(=O)[C@@H]3CSSC[C@@H](C(=O)N[C@H](C(=O)N4CCC[C@H]4C(=O)N[C@@H](CCCCN)C(=O)O)[C@@H](C)O)NC(=O)[C@H](Cc4c[nH]cn4)NC(=O)[C@H](CSSC[C@H](NC(=O)[C@H](CCC(N)=O)NC(=O)[C@H](CCCNC(=N)N)NC(=O)[C@H](CO)NC1=O)C(=O)N[C@@H](CC(C)C)C(=O)N[C@@H](CCC(=O)O)C(=O)N1CCC[C@H]1C(=O)N3)NC(=O)[C@H](CCCCN)NC(=O)CNC(=O)[C@H](CC(N)=O)NC(=O)[C@H](CCSC)NC2=O` [K27E] (H-GVIINVKCKISRQCLEPCKKAGMRFGECMNGKCHCTPK-OH; disulfide 8-28, 14-33, 18-35): the IC50 (usually the midpoint of a concentration-inhibition curve) against human Kv1.3 (CHO) is over 3.33 nM; against human Kv1.1 (HEK293), 0.549 nM.

Turning to `CC[C@H](C)[C@@H]1NC(=O)[C@H](CCCCN)NC(=O)[C@@H](NC(=O)[C@H](CCCCN)NC(=O)[C@@H](NC(=O)[C@H](CC(N)=O)NC(=O)[C@@H](NC(=O)[C@@H](NC(=O)[C@@H](NC(=O)CN)C(C)C)[C@@H](C)CC)[C@@H](C)CC)C(C)C)CSSC[C@@H]2NC(=O)[C@H](Cc3cccc4ccccc34)NC(=O)CNC(=O)[C@H](Cc3ccccc3)NC(=O)[C@H](CCCNC(=N)N)NC(=O)[C@H](CCSC)NC(=O)CNC(=O)[C@H](C)NC(=O)[C@H](CCCCN)NC(=O)[C@H](CCCCN)NC(=O)[C@@H]3CSSC[C@@H](C(=O)N[C@H](C(=O)N4CCC[C@H]4C(=O)N[C@@H](CCCCN)C(=O)O)[C@@H](C)O)NC(=O)[C@H](Cc4c[nH]cn4)NC(=O)[C@H](CSSC[C@H](NC(=O)[C@H](CCC(N)=O)NC(=O)[C@H](CCCNC(=N)N)NC(=O)[C@H](CO)NC1=O)C(=O)N[C@@H](CC(C)C)C(=O)N[C@@H](CCC(=O)O)C(=O)N1CCC[C@H]1C(=O)N3)NC(=O)[C@H](CCCCN)NC(=O)CNC(=O)[C@H](CC(N)=O)NC(=O)[C@H](CCSC)NC2=O` [K27Nal] (H-GVIINVKCKISRQCLEPCKKAGMRFG[1Nal]CMNGKCHCTPK-OH; disulfide 8-28, 14-33, 18-35), the values for the IC50 against human Kv1.3 (CHO) and against human Kv1.1 (HEK293) were over 3.33 nM and 1.04 nM, respectively.

On to `CC[C@H](C)[C@@H]1NC(=O)[C@H](CCCCN)NC(=O)[C@@H](NC(=O)[C@H](CCCCN)NC(=O)[C@@H](NC(=O)[C@H](CC(N)=O)NC(=O)[C@@H](NC(=O)[C@@H](NC(=O)[C@@H](NC(=O)CN)C(C)C)[C@@H](C)CC)[C@@H](C)CC)C(C)C)CSSC[C@@H]2NC(=O)[C@H](CCCNC(=N)N)NC(=O)CNC(=O)[C@H](Cc3ccccc3)NC(=O)[C@H](CCCNC(=N)N)NC(=O)[C@H](CCSC)NC(=O)CNC(=O)[C@H](C)NC(=O)[C@H](CCCCN)NC(=O)[C@H](CCCCN)NC(=O)[C@@H]3CSSC[C@@H](C(=O)N[C@H](C(=O)N4CCC[C@H]4C(=O)N[C@@H](CCCCN)C(=O)O)[C@@H](C)O)NC(=O)[C@H](Cc4c[nH]cn4)NC(=O)[C@H](CSSC[C@H](NC(=O)[C@H](CCC(N)=O)NC(=O)[C@H](CCCNC(=N)N)NC(=O)[C@H](CO)NC1=O)C(=O)N[C@@H](CC(C)C)C(=O)N[C@@H](CCC(=O)O)C(=O)N1CCC[C@H]1C(=O)N3)NC(=O)[C@H](CCCCN)NC(=O)CNC(=O)[C@H](CC(N)=O)NC(=O)[C@H](CCSC)NC2=O` [K27R] (H-GVIINVKCKISRQCLEPCKKAGMRFGRCMNGKCHCTPK-OH; disulfide 8-28, 14-33, 18-35), for which the IC50 at human Kv1.3 (CHO) was 1.49 nM; against human Kv1.1 (HEK293), over 3.33 nM.

Turning to `CC[C@H](C)[C@@H]1NC(=O)[C@H](CCCCN)NC(=O)[C@@H](NC(=O)[C@H](CCCCN)NC(=O)[C@@H](NC(=O)[C@H](CC(N)=O)NC(=O)[C@@H](NC(=O)[C@@H](NC(=O)[C@@H](NC(=O)CN)C(C)C)[C@@H](C)CC)[C@@H](C)CC)C(C)C)CSSC[C@@H]2NC(=O)[C@H](CCCCN)NC(=O)CNC(=O)[C@H](Cc3ccccc3)NC(=O)[C@H](CCCNC(=N)N)NC(=O)[C@H](CCSC)NC(=O)CNC(=O)[C@H](C)NC(=O)[C@H](CCCCN)NC(=O)[C@H](CCCCN)NC(=O)[C@@H]3CSSC[C@@H](C(=O)N[C@H](C(=O)N4CCC[C@H]4C(=O)N[C@@H](CCCCN)C(=O)O)[C@@H](C)O)NC(=O)[C@H](Cc4c[nH]cn4)NC(=O)[C@H](CSSC[C@H](NC(=O)[C@H](CCC(N)=O)NC(=O)[C@H](CCCNC(=N)N)NC(=O)[C@H](CO)NC1=O)C(=O)N[C@@H](CC(C)C)C(=O)N[C@@H](CCC(=O)O)C(=O)N1CCC[C@H]1C(=O)N3)NC(=O)[C@H](CCC(=O)O)NC(=O)CNC(=O)[C@H](CC(N)=O)NC(=O)[C@H](CCSC)NC2=O` [K32E] (H-GVIINVKCKISRQCLEPCKKAGMRFGKCMNGECHCTPK-OH; disulfide 8-28, 14-33, 18-35), the IC50 was found to be 0.0156 nM against human Kv1.3 (CHO) and 0.0173 nM on human Kv1.1 (HEK293).

For the compound `CC[C@H](C)[C@@H]1NC(=O)[C@H](CCCCN)NC(=O)[C@@H](NC(=O)[C@H](CCCCN)NC(=O)[C@@H](NC(=O)[C@H](CC(N)=O)NC(=O)[C@@H](NC(=O)[C@@H](NC(=O)[C@@H](NC(=O)CN)C(C)C)[C@@H](C)CC)[C@@H](C)CC)C(C)C)CSSC[C@@H]2NC(=O)[C@H](CCCCN)NC(=O)CNC(=O)[C@H](Cc3ccccc3)NC(=O)[C@H](CCCNC(=N)N)NC(=O)[C@H](CCSC)NC(=O)CNC(=O)[C@H](C)NC(=O)[C@H](CCCCN)NC(=O)[C@H](CCCCN)NC(=O)[C@@H]3CSSC[C@@H](C(=O)N[C@H](C(=O)N4CCC[C@H]4C(=O)N[C@@H](CCCCN)C(=O)O)[C@@H](C)O)NC(=O)[C@H](Cc4c[nH]cn4)NC(=O)[C@H](CSSC[C@H](NC(=O)[C@H](CCC(N)=O)NC(=O)[C@H](CCCNC(=N)N)NC(=O)[C@H](CO)NC1=O)C(=O)N[C@@H](CC(C)C)C(=O)N[C@@H](CCC(=O)O)C(=O)N1CCC[C@H]1C(=O)N3)NC(=O)[C@H](CCCNC(=N)N)NC(=O)CNC(=O)[C@H](CC(N)=O)NC(=O)[C@H](CCSC)NC2=O` [K32R] (H-GVIINVKCKISRQCLEPCKKAGMRFGKCMNGRCHCTPK-OH; disulfide 8-28, 14-33, 18-35), the IC50 on human Kv1.3 (CHO) was 0.0308 nM; at human Kv1.1 (HEK293), 0.00724 nM.

`CC[C@H](C)[C@@H]1NC(=O)[C@H](CCCCN)NC(=O)[C@@H](NC(=O)[C@H](CCCCN)NC(=O)[C@@H](NC(=O)[C@H](CC(N)=O)NC(=O)[C@@H](NC(=O)[C@@H](NC(=O)[C@@H](NC(=O)CN)C(C)C)[C@@H](C)CC)[C@@H](C)CC)C(C)C)CSSC[C@@H]2NC(=O)[C@H](CCCCN)NC(=O)CNC(=O)[C@H](Cc3ccccc3)NC(=O)[C@H](CCCNC(=N)N)NC(=O)[C@H](CCSC)NC(=O)CNC(=O)[C@H](C)NC(=O)[C@H](CCCCN)NC(=O)[C@H](CCCCN)NC(=O)[C@@H]3CSSC[C@@H](C(=O)N[C@H](C(=O)N4CCC[C@H]4C(=O)N[C@@H](CCC(=O)O)C(=O)O)[C@@H](C)O)NC(=O)[C@H](Cc4c[nH]cn4)NC(=O)[C@H](CSSC[C@H](NC(=O)[C@H](CCC(N)=O)NC(=O)[C@H](CCCNC(=N)N)NC(=O)[C@H](CO)NC1=O)C(=O)N[C@@H](CC(C)C)C(=O)N[C@@H](CCC(=O)O)C(=O)N1CCC[C@H]1C(=O)N3)NC(=O)[C@H](CCCCN)NC(=O)CNC(=O)[C@H](CC(N)=O)NC(=O)[C@H](CCSC)NC2=O` [K38E] (H-GVIINVKCKISRQCLEPCKKAGMRFGKCMNGKCHCTPE-OH; disulfide 8-28, 14-33, 18-35): the 50% inhibitory concentration (IC50) at human Kv1.3 (CHO) turned out to be 0.0258 nM; against human Kv1.1 (HEK293), 0.0343 nM.

(Values after patent US20090299044A1 (priority 2006, published 2009).)
